From US10981926B2 (Janssen Pharmaceutica NV, priority 2016, dated 2021) come the findings set out here.

Assay [1] addresses T1, F876L mutant Androgen Receptor (AR-F876L) (Homo sapiens (Human), UniProt P10275, F877L). The experiment in a line: LNCaP-AR-F876L AG reporter assay (agonist mode). The assay is classed as cell-based. The settings on record: for Emax: read-out: LNCaP-AR-F876L AG MAX % Stim; for EC50: read-out: LNCaP-AR-F876L AG pEC50 (converted).
Assay [2] concerns the target T2, wild-type Androgen Receptor (AR-wt) (Homo sapiens (Human), UniProt P10275). The experiment in a line: LNCaP-AR-wt AG reporter assay (agonist mode). In kind it is cell-based. The settings on record: for Emax: read-out: LNCaP-AR-wt AG MAX % Stim; for EC50: read-out: LNCaP-AR-wt AG pEC50 (converted). Background: In a reporter assay the amount or activity of a reporter protein is the signal.

For a further assay, the system named is rGABA-gated Cl− channel. The experiment in a line: GABA-Gated Cl Channel Antagonist Radioligand Binding Assay. More on the design: species or system rat. The following applies: 10 μM single point, [35S]-TBPS, cerebral cortex membrane homogenates. The method, then: GABA-gated C1 Chanel assays were performed at CEREP according to the following method. Membrane homogenates of cerebral cortex (120 μg protein) were incubated for 120 min at 22° C. with 3 nM […] in the absence or presence of the test compound in a buffer containing 50 mM Na2HPO4/KH2PO4 (pH 7.4) and 500 mM NaCl. Nonspecific binding was determined in the presence of 20 μM picrotoxinin. Following incubation, the samples were filtered rapidly under vacuum through glass fiber filters (GF/B, Packard) presoaked with 0.3% PEI and rinsed several times with ice-cold 50 mM Tris-HCl using a 96-sample cell harvester (Unifilter, Packard). The filters were dried then counted for radioactivity in a scintillation counter (Topcount, Packard) using a scintillation cocktail (Microscint 0, Packard). The results are expressed as a percent inhibition of the control radio ligand specific binding. The standard reference compound is picrotoxinin, which was tested in each experiment at several concentrations to obtain a competition curve from which its IC50 was calculated. In this assay, the following representative compounds disclosed herein had recorded activities at a 10 μM single point concentration in the GABA-gated Cl— Channel Binding Assay.

The target of assay [3] is T2, wild-type Androgen Receptor (AR-wt). The experiment in a line: LNCaP-AR-wt ANT reporter assay (antagonist mode). The assay is classed as cell-based. The settings on record: for Emax: read-out: LNCaP-AR-wt ANT MAX % Inh; for IC50: read-out: LNCaP-AR-wt ANT pIC50 (converted).
For assay [4], the target named is T1, F876L mutant Androgen Receptor (AR-F876L). The experiment in a line: LNCaP-AR-F876L ANT reporter assay (antagonist mode). The assay is classed as cell-based. The following applies: for Emax: read-out: LNCaP-AR-F876L ANT MAX % Inh; for IC50: read-out: LNCaP-AR-F876L ANT pIC50 (converted).
Setting [5] is: agonist mode, maximum % stimulation over tested concentration range.
[6] abbreviates: agonist mode, pEC50 = −Log10(EC50 in Molar).
The mark [7] stands for this setting: antagonist mode, maximum % inhibition of R1881 control response over tested concentration range.
Setting [8] is: antagonist mode, pIC50 = −Log10(IC50 in Molar).
The mark [9] stands for this setting: maximum % stimulation (agonist response) over the tested concentration range.
The mark [10] stands for this setting: maximum % inhibition of R1881 control response over the tested concentration range.

T2 sequence (P10275 whole entry): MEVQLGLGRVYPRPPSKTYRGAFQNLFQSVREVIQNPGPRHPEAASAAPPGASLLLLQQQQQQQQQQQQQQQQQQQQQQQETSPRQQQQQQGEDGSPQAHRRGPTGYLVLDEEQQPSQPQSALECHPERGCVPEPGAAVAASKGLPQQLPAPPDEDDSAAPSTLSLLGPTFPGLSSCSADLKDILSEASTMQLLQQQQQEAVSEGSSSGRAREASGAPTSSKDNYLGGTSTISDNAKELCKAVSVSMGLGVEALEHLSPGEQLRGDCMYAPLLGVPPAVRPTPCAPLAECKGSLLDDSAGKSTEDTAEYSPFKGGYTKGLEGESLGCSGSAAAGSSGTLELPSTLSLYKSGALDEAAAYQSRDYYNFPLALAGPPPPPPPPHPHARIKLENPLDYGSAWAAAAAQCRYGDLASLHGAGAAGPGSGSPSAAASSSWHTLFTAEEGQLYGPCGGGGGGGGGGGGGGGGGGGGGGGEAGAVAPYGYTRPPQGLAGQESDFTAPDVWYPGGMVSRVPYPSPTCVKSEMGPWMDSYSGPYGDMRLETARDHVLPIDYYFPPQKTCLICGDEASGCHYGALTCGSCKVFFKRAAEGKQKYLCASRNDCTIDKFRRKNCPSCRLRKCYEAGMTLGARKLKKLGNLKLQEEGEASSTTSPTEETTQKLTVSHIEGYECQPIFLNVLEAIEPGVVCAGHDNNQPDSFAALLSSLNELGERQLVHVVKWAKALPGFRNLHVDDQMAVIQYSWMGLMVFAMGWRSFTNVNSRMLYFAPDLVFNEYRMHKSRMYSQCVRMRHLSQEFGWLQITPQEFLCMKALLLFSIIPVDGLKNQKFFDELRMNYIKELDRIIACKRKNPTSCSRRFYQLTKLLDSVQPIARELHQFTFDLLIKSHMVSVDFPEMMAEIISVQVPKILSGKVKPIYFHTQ
T1 sequence (P10275 whole entry F877L): as the sequence (P10275 whole entry) above, with F877L counted along it

On to `CN1CCOC(c2ccc(N3C(=S)N(c4cnc(C#N)c(C(F)(F)F)c4)C(=O)C34CCC4)cc2)C1` (stereo not drawn) [Cpd 241, 5-[8-[4-(4-methylmorpholin-2-yl)phenyl]-5-oxo-7-thioxo-6,8-diazaspiro[3.4]octan-6-yl]-3-(trifluoromethyl)pyridine-2-carbonitrile], for which the Emax in assay [1] (setting [5]) is 1.1%; in assay [2] (setting [5]) it was -0.1%; in assay [3] (setting [7]) it was 103%; in assay [4] (setting [7]), 103%. The EC50 in assay [1] (setting [6]) and in assay [2] (setting [6]) was over 15100 nM in each case. The “rGABA-gated Cl− channel % inh @10 μM” value with rGABA-gated Cl− channel is recorded as 87.4%. The results for the IC50 in assay [3] (setting [8]) and in assay [4] (setting [8]) were 224 nM and 158 nM, respectively.
For `N#Cc1ncc(N2C(=O)C3(CCC3)N(c3ccc(N4CCN(C(=O)N5CCCC5)CC4)cc3)C2=S)cc1C(F)(F)F` [Cpd 76, 5-(8-oxo-5-(4-(4-(pyrrolidine-1-carbonyl)piperazin-1-yl)phenyl)-6-thioxo-5,7-diazaspiro[3.4]octan-7-yl)-3-(trifluoromethyl)picolinonitrile], the EC50 in assay [1] (setting [6]) and in assay [2] (setting [6]) was over 15100 nM throughout. Moreover, the Emax in assay [1] (setting [9]) was 2.2%; in assay [2] (setting [9]) it was 0.6%; in assay [3] (setting [10]), 102%; in assay [4] (setting [10]) it was 97.5%. The “rGABA-gated Cl− channel % inh @10 μM” value in the assay on rGABA-gated Cl− channel was 85.4%. In addition, the IC50 in assay [3] (setting [8]) is 93.3 nM; in assay [4] (setting [8]), 141 nM.
In the case of `CC1COC(COc2ccc(N3C(=S)N(c4cnc(C#N)c(C(F)(F)F)c4)C(=O)C34CCC4)cc2)CN1` [Cpd 91, (R,S),(R,S)-5-[8-[4-[(5-methylmorpholin-2-yl)methoxy]phenyl]-5-oxo-7-thioxo-6,8-diazaspiro[3.4]octan-6-yl]-3-(trifluoromethyl)pyridine-2-carbonitrile], in assay [1] (setting [6]), the “LNCaP-AR-F876L AG pEC50” value was under 4.82. In addition, the “LNCaP-AR-F876L AG MAX % Stim” value in assay [1] (setting [9]) is given as 0.4%. For the same molecule, in assay [2] (setting [6]), the “LNCaP-AR-wt AG pEC50” value is under 4.82. Also, the “LNCaP-AR-wt AG MAX % Stim” value in assay [2] (setting [9]) is listed as 0.6%. Also, the “rGABA-gated Cl− channel % inh @10 μM” value with rGABA-gated Cl− channel came out at 36.7%. In addition, the “LNCaP-AR-wt ANT pIC50” value in assay [3] (setting [8]) is reported as 7.33. In assay [3] (setting [10]), the “LNCaP-AR-wt ANT MAX % Inh” value came out at 98.3%. The “LNCaP-AR-F876L ANT pIC50” value in assay [4] (setting [8]) was 7.49. The “LNCaP-AR-F876L ANT MAX % Inh” value in assay [4] (setting [10]) was found to be 98.6%.
With `N#Cc1ncc(N2C(=O)C3(CCC3)N(c3ccc(OCC4CC(F)(F)CN4)cc3)C2=S)cc1C(F)(F)F` (stereo not drawn) [Cpd 54, 5-[8-[4-[(4,4-difluoropyrrolidin-2-yl)methoxy]phenyl]-5-oxo-7-thioxo-6,8-diazaspiro[3.4]octan-6-yl]-3-(trifluoromethyl)pyridine-2-carbonitrile], the EC50 in assay [1] (setting [6]) and in assay [2] (setting [6]) was over 15100 nM in each case. Besides, the Emax came to 0.7% in assay [1] (setting [9]), 1.3% in assay [2] (setting [9]), 101% in assay [3] (setting [10]) and 97.1% in assay [4] (setting [10]). Further, the “rGABA-gated Cl− channel % inh @10 μM” value in the assay with rGABA-gated Cl− channel stood at 93.0%. Also, the IC50 in assay [3] (setting [8]) is 81.3 nM; in assay [4] (setting [8]) it was 93.3 nM.
As for `CC(=O)N1CC(F)(F)CC1COc1ccc(N2C(=S)N(c3cnc(C#N)c(C(F)(F)F)c3)C(=O)C23CCC3)cc1` (stereo not drawn) [Cpd 71, 5-[8-[4-[(1-acetyl-4,4-difluoro-pyrrolidin-2-yl)methoxy]phenyl]-5-oxo-7-thioxo-6,8-diazaspiro[3.4]octan-6-yl]-3-(trifluoromethyl)pyridine-2-carbonitrile], the EC50 in assay [1] (setting [6]) and in assay [2] (setting [6]) was over 15100 nM each time. In addition, the Emax in assay [1] (setting [9]) came to 0.5%; in assay [2] (setting [9]) it was 0.2%; in assay [3] (setting [10]) it was 101%; in assay [4] (setting [10]), 98.3%. Further, the “rGABA-gated Cl− channel % inh @10 μM” value with rGABA-gated Cl− channel was 82.1%. Also, the IC50 in assay [3] (setting [8]) is 102 nM; in assay [4] (setting [8]), 178 nM.
